ChEMBL document CHEMBL1938294, “DNA binding and anticancer activity of naphthalimides with 4-hydroxyl-alkylamine side chains at different lengths” (Bioorg Med Chem Lett, 2012)
Active and inactive are the calls of the source. The rule behind the calls is not given here.

Tests used:
[1] = test system: Nucleic Acid; experiment: Binding affinity to calf thymus DNA by UV-Vis spectroscopy; type: nucleic-acid assay; details: Bos taurus
[2] = test system: Nucleic Acid; experiment: Binding affinity to calf thymus DNA assessed as bathochromic shift at 1 x 10^-5 M by UV-Vis spectroscopy; type: nucleic-acid assay; details: Bos taurus
[3] = test system: Nucleic Acid; experiment: Binding affinity to calf thymus DNA assessed as hypochromicity at 1 x 10^-5 M by UV-Vis spectroscopy; type: nucleic-acid assay; details: Bos taurus
[4] = test system: Nucleic Acid; experiment: Binding affinity to calf thymus DNA assessed as intercalation at 1 x 10^-5 M by fluorescence spectroscopy; type: nucleic-acid assay; details: Bos taurus
[5] = test system: Nucleic Acid; experiment: Binding affinity to calf thymus DNA assessed as efficiency of fluorescence enhancement at 1 x 10^-5 M by fluorescence spectroscopy; type: nucleic-acid assay; details: Bos taurus
[6] = test system: Nucleic Acid; experiment: Binding affinity to calf thymus DNA assessed as intercalation at 2 x 10^-5 M by CD spectroscopy; type: nucleic-acid assay; details: Bos taurus
[7] = test system: Nucleic Acid; experiment: Binding affinity to calf thymus DNA assessed as melting temperature at 5 x 10^-6 M by thermal denaturation assay (reference value: 68.4 degC); type: nucleic-acid assay; details: Bos taurus
[8] = test system: Nucleic Acid; experiment: Binding affinity to calf thymus DNA assessed as change in melting temperature at 5 x 10^-6 M by thermal denaturation assay; type: nucleic-acid assay; details: Bos taurus
[9] = test system: Bel-7402; experiment: Cytotoxicity against human Bel7402 cells by MTT assay; type: functional, cell-based
[10] = test system: HL-60; experiment: Cytotoxicity against human HL60 cells by MTT assay; type: functional, cell-based

| SMILES | K [1] [×10⁴ /M] | Activity [2] [nm] | Activity [3] [%] | Activity [4] | KSV [5] [×10³ /M] | Activity [6] | Tm [7] [°C] | ΔTm [8] [°C] | IC50 [9] [µM] | IC50 [10] [µM] |
| --- | --- | --- | --- | --- | --- | --- | --- | --- | --- | --- |
| CN(C)CCN1C(=O)c2cccc3c(NCCCO)ccc(c23)C1=O | 1.03 | 453 | 31 | Active | 4.03 | Active | 71.9 | 3.5 | 33.5 | 38.5 |
| CN(C)CCN1C(=O)c2cccc3c(NCCO)ccc(c23)C1=O | 1.44 | 447 | 31 | Active | 3.12 | Active | 71 | 2.6 | 30.9 | 25.9 |
| CN(C)CCN1C(=O)c2cccc3c(NCCCCCCO)ccc(c23)C1=O | 1.1 | 453 | 31 | Active | 7.12 | Active | 71.8 | 3.4 | 17.5 | 20.5 |

Continued, in another order:

| K [1] [×10⁴ /M] | Activity [2] [nm] | Activity [3] [%] | Activity [4] | KSV [5] [×10³ /M] | Activity [6] | Tm [7] [°C] | ΔTm [8] [°C] | SMILES | IC50 [9] [µM] | IC50 [10] [µM] |
| --- | --- | --- | --- | --- | --- | --- | --- | --- | --- | --- |
| 1.2 | 453 | 31 | Active | 4.36 | Active | 72.2 | 3.8 | CN(C)CCN1C(=O)c2cccc3c(NCCCCCO)ccc(c23)C1=O | 9.17 | 17.7 |
| 0.74 | 452 | 30 | Active | 1.15 | Active | 71.2 | 2.8 | CN(C)CCN1C(=O)c2cccc3c(NCCCCO)ccc(c23)C1=O | 5.57 | 11.2 |
